Test results as given in US20180000942A1, “COMPOSITIONS FOR DRUG ADMINISTRATION” (priority 2013, published 2018).

What was measured:
blood D-glucose = assay: Glucagon eye drops with surfactant, blood D-glucose; details: 0.5% surfactant plus glucagon (30 μg) eye drops
Experimental: Glucagon absorption from the eye was measured in rats given eye drops containing various surfactants plus glucagon (30 μg) (Eli Lilly, Indianapolis, Ind.) by monitoring an elevation in blood D-glucose levels. In these experiments, rats were anesthetized with sodium pentobarbital rather than xylazine/ketamin.
Paired animals that receive eye drops containing the surfactant alone, or glucagon alone, were compared to animals receiving eye drops with the surfactant plus glucagon.

blood glucose [1] = assay: Insulin eye drops with absorption enhancer in xylazine/ketamine anesthetized rats, blood glucose
[2] = Oral phenylephrine tablets with alkylsaccharide; assay type: in vivo, canine
Experimental: In a canine model, subjects were dosed orally with various phenylephrine (PE) tablet formulations, and blood samples were taken to determine the rate of parent phenyl ethyl phenylephrine absorption. Blood levels of parent phenylephrine were measured. Three subject groups were created with each alkylsaccharide test group containing five subjects in each test group. All subject groups received 10 mg of phenylephrine as a single tablet. Each subject was in the fasting state for overnight and two hours post dose. Blood samples were taken at pre-dose, 5, 10, 15, 30, 45 min., 1, 2, and 3 hours.
Comparator was the standard 30 mg (total weight including excipients) phenylephrine tablet was no absorption enhancer. Group number 2 tablets contain the alkylsaccharide designated A3, which is n-dodecyl-beta-D-maltoside in the amounts of 2.5 mg, 5 mg, and 7.5 mg, respectively. Group number three tablets contain the alkylsaccharide designated B3, which is sucrose monododecanoate, in the amounts of 5 mg, 10 mg, and 20 mg, respectively.

human nasal epithelium = assay: Irritation of nasal mucosa on daily intranasal administration; details: 47 days
food intake = details: injection; cited from earlier work
[3] = test system: Aspergillus niger (ATCC No. 16404); assay: Log reduction of microorganisms in cultures with alkylglycoside; assay type: cell-based; details: for Log reduction of cultures: PBS pH 7, 1 mg/mL PYY; for Log reduction of microorganisms: PBS pH 7, […] BSA
Excerpt: (§1) 20110-2209. The viable microorganisms used in the invention were not more than five passages removed from the original ATCC culture. As described herein, one passage is defined as the transfer of organisms from an established culture to fresh medium and all transfers are counted.
(§2) The culture conditions for the inoculum culture is substantially as described in Table IV. For example, suitable media can include but is not limited to, Soybean-Casein Digest or Sabouraud Dextrose Agar Medium. […]
(§3) The suspension should be refrigerated if it is not used within 2 hours. To confirm the initial cfu per mL estimate, the number of cfu per mL in each suspension was determined using the conditions of media and microbial recovery incubation times listed in Table IV (e.g., from about 3 to about 7 days). This value serves to calibrate the size of inoculum used in the test. The bacterial and yeast suspensions were used within 24 hours of harvest; whereas the fungal preparation can be stored under refrigeration for up to 7 days.
(§4) To determine which alkylglycoside formulations have antibacterial activity, the formulations were prepared in phosphate buffered saline (PBS) at pH 7. As a source of nutrition, either 1.5 mg/mL bovine serum albumin (BSA; see Tables V and VI) or 1 mg/mL of PYY was added (see Table VII) to the medium. BSA (CAS Number: 9048-46-8) was obtained from Sigma-Aldrich, St. Louis, Mo., USA, n-dodecyl-4-O-α-D-glucopyranosyl-β-D-glucopyranoside and n-tetradecyl-4-O-α-D-glucopyranosyl-β-D-glucopyranoside were obtained from Anatrace Inc., Maumee, Ohio, USA, and PYY was obtained from Bachem California Inc., Torrance, Calif., USA.
(§5) Antibacterial activity of the alkylglycosides were conducted in four sterile, capped bacteriological containers of suitable size into which a sufficient volume of alkylglycoside solution had been transferred. Each container was inoculated with one of the prepared and standardized inoculums and mixed. The volume of the suspension inoculum was between about 0.5% and about 1.0% of the volume of the alkylglycoside solution. […]. To determine the level of inhibition of growth, or reduction of growth based on a logarithmic scale, the initial concentration of viable microorganisms in each test preparation was estimated based on the concentration of microorganisms in each of the standardized inoculum as determined by the plate-count method. The inoculated containers were then incubated at about 22.5° C.±2.5. The growth or non-growth of the microorganisms in each culture/container were again determined at day 14 and day 28. The number of cfu present in each calculation was determined by the plate-count procedure standard in the art for the applicable intervals. The change in the orders of magnitude of bacterium and/or fungi was then determined by subtracting the first calculated log 10 values of the concentrations of cfu per mL present at the start or beginning (e.g., day 0), from the log 10 values of the concentration of cfu per mL for each microorganism at the applicable test intervals (e.g., day 14 and day 28; see Tables V, VI and VII).

[4] = test system: Candida albicans (ATCC No. 10231); assay: as above; assay type: cell-based; details: for Log reduction of cultures: PBS pH 7, 1 mg/mL PYY; for Log reduction of microorganisms: PBS pH 7, […] BSA
Excerpt: as §1, §2, §3, §4, §5

[5] = test system: Escherichia coli (ATCC No. 8739); assay: as above; assay type: cell-based; details: for Log reduction of cultures: PBS pH 7, 1 mg/mL PYY
Excerpt: as §1, §2, §3, §4, §5

[6] = test system: Staphylococcus aureus (ATCC No. 6538); assay: as above; assay type: cell-based; details: for Log reduction of cultures: PBS pH 7, 1 mg/mL PYY; for Log reduction of microorganisms: PBS pH 7, […] BSA
Excerpt: as §1, §2, §3, §4, §5

blood glucose [7] = assay: Intranasal insulin with […] TDM in anesthesia-induced hyperglycemia model; assay type: in vivo, mouse; details: minus […] TDM
Excerpt: Intranasal administration of drugs or agents are possible in animal models e.g. mice and rats, although the nasal opening in is very small. In the experiments and results described herein, an anesthesia-induced hyperglycemia model was used (described in Examples above). Hyperglycemic animals were induced by an intraperitoneal (IP) injection containing xylazine-ketamine and blood glucose levels were monitored over a period of time. Immediately after the xylazine-ketamine injection, there was an increase in the blood glucose levels as shown in FIG. 2 (closed dark circles), and blood glucose levels were about 450 mg/dl. […] Blood glucose levels peak to about 482 mg/dl by 30 minutes after the xylazine-ketamine injection (FIG. 2). […] At about the 75 minute time point, blood glucose levels gradually returned to the baseline level in a normoglycemic mouse, or about 80-100 mg/dl.

[8] = no alkylsaccharide, cited from earlier work

For `CCCCCCCCCCCCCO[C@@H]1O[C@H](CO)[C@@H](O[C@H]2O[C@H](CO)[C@@H](O)[C@H](O)[C@H]2O)[C@H](O)[C@H]1O` [Tridecyl Maltoside, tridecyl-β-D-maltoside], the “level of D-glucose in blood after eye drops with surfactant plus glucagon, in words” value (blood D-glucose) was “increase significantly”, the “effect as absorption enhancer for ocular insulin (blood glucose lowering), in words” value (“effect … (blood glucose lowering), in words” below) (blood glucose [1]; 0.5% enhancer) was “effective” and the “effect … (blood glucose lowering), in words” value (blood glucose [1]; […] enhancer) was “sustained for the two hour time course of the experiment”.

In the case of `CCCCCCCCCCCC(=O)OC[C@H]1O[C@H](O[C@]2(CO)O[C@H](CO)[C@@H](O)[C@@H]2O)[C@H](O)[C@@H](O)[C@@H]1O` [sucrose dodecanoate, sucrose monododecanoate], the “increase of oral bioavailability of phenylephrine in compressed tablets” value ([2]; maximum over the loadings tested) is reported as “up to 50%” and the “irritation of the nasal mucosa” value (human nasal epithelium) is reported as “no observable irritation”.

In the case of “PYY: gut hormone fragment peptide PYY3-36”, the “reduction of food eaten versus usual” value (food intake) is listed as 30%.

In the case of `CCCCCCCCCCCCO[C@@H]1O[C@H](CO)[C@@H](O[C@H]2O[C@H](CO)[C@@H](O)[C@H](O)[C@H]2O)[C@H](O)[C@H]1O` [Dodecyl Maltoside, n-Dodecyl-4-O-α-D-glucopyranosyl-β-D-glucopyranoside], the “Log reduction of cultures” value ([3]; Day 14) is reported as 4.7 orders of orders of magnitude reduction, the “Log reduction of cultures” value ([3]; Day 28) is reported as 4.7 orders of orders of magnitude reduction and the “Log reduction of microorganisms” value ([3]; Day 14) is reported as 0.7 orders of orders of magnitude reduction. For the same molecule, the “Log reduction of microorganisms” value ([3]; Day 28) was “No growth”, the “Log reduction of cultures” value ([4]; Day 14) was “≧4.5 orders of orders of magnitude reduction” and the “Log reduction of cultures” value ([4]; Day 28) was “≧4.5 orders of orders of magnitude reduction”. For the same molecule, the “Log reduction of microorganisms” value ([4]; Day 14) was 3.0 orders of orders of magnitude reduction, the “Log reduction of microorganisms” value ([4]; Day 28) was “≧5.3 orders of orders of magnitude reduction” and the “Log reduction of cultures” value ([5]; Day 14) was “≧5 orders of orders of magnitude reduction”. The “Log reduction of cultures” value ([5]; Day 28) was “≧5 orders of orders of magnitude reduction”, the “Log reduction of microorganisms” value ([5]; PBS pH 7, […] BSA, Day 28) was 0.1 orders of orders of magnitude reduction and the “Log reduction of cultures” value ([6]; Day 14) was “≧4.9 orders of orders of magnitude reduction”. For the same molecule, the “Log reduction of cultures” value ([6]; Day 28) was “≧4.9 orders of orders of magnitude reduction”, the “Log reduction of microorganisms” value ([6]; Day 14) was “≧5.2 orders of orders of magnitude reduction” and the “Log reduction of microorganisms” value ([6]; Day 28) was “≧5.2 orders of orders of magnitude reduction”. For the same molecule, the “increase of oral bioavailability of phenylephrine in compressed tablets” value ([2]; dog, in vivo, po) was “up to 56%”, the “effect … (blood glucose lowering), in words” value (blood glucose [1]; 0.5% enhancer) was “equally effective” and the “effect … (blood glucose lowering), in words” value (blood glucose [1]; 0.5% enhancer, listed as dodecyl-β-D-maltoside) was “prompt and sustained fall in blood glucose levels”.

For “insulin alone: insulin (Humalog), same dosage, minus 0.25% TDM”, the “return of blood glucose to normoglycemic levels” value (blood glucose [7]) was “never return to normoglycemic levels” and the “time at which blood glucose levels start to decline” value (blood glucose [7]; same dosage) was roughly 120 minute time mark.

With `CCCCCCCOC1O[C@H](CO)[C@@H](O)[C@H](O)[C@H]1O` (stereo partly shown) [heptylglucoside, heptylglucopyranoside] the “effect … (blood glucose lowering), in words” value (blood glucose [1]; 0.5% enhancer) was “ineffective”.

For `Cc1cc2c(s1)Nc1ccccc1N=C2N1CCN(C)CC1` [olanzapine, Olanzapine], the “time to peak concentrations” value ([8]; following an oral dose) is listed as “approximately 6 hours” and the “dose metabolized by first pass before reaching the systemic circulation” value [8] is listed as “approximately 40%”.

In the case of `CCCCCCCCCCO[C@@H]1O[C@H](CO)[C@@H](O[C@H]2O[C@H](CO)[C@@H](O)[C@H](O)[C@H]2O)[C@H](O)[C@H]1O` [Decyl Maltoside, decyl-β-D-maltoside], the “level of D-glucose in blood after eye drops with surfactant plus glucagon, in words” value (blood D-glucose) is reported as “increase significantly” and the “effect … (blood glucose lowering), in words” value (blood glucose [1]; 0.5% enhancer) is reported as “prompt and sustained fall in blood glucose levels”.

For `CCCCCCOC1O[C@H](CO)[C@@H](O)[C@H](O)[C@H]1O` (stereo partly shown) [hexylglucoside, Hexylglucopyranoside], the “effect … (blood glucose lowering), in words” value (blood glucose [1]; 0.5% enhancer) was “ineffective”.

With `CCCCCCCCCOC1O[C@H](CO)[C@@H](O)[C@H](O)[C@H]1O` (stereo partly shown) [nonylglucoside, nonylglucopyranoside] the “effect … (blood glucose lowering), in words” value (blood glucose [1]; 0.5% enhancer) was “effectively stimulated insulin absorption”, the “blood glucose level before reduction (from)” value (blood glucose [1]; eye drops insulin + 0.5% enhancer, initial value) was 297 mg/dL and the “blood glucose level after reduction (to)” value (blood glucose [1]; eye drops insulin + 0.5% enhancer, reduced value) was 150 mg/dL.

With decylsucrose the “Blood Glucose Concentration” value (blood glucose [1]; eye drops insulin + 0.5% enhancer, time 0 min) was 313 mg/dL and the “Blood Glucose Concentration” value (blood glucose [1]; eye drops insulin + 0.5% enhancer, time 120 min) was 164 mg/dL.
